Literature values, collected in publication PMC11267572, “A Repurposed Drug Interferes with Nucleic Acid to Inhibit the Dual Activities of Coronavirus Nsp13” (ACS Chemical Biology, 2024).

System: SARS-CoV-2 Omicron variant
Design: method as in PMID 36899912
Settings: bronchial epithelial cells; cited from earlier work

Q: Which “inhibition of viral replication” value does the source give for O=C(NCc1ccc(Oc2ccccc2)cc1)c1nc(-c2cc(Br)c(O)c(Br)c2)no1 [IOWH-032] here?
A: The value was “micromolar inhibition”.
